Counter-ions that a name gives are not always drawn. ± gives the uncertainty stated by the source.
Key:
THP-1 = assay: efficacy of IL-8 induction relative to DMSO (% activity); higher = stronger induction; details: exposure time: 18 h
[1] = tested on: KeratinoSens (HaCaT ARE-luciferase) cells; assay: AC50 of Nrf2/ARE luciferase induction; higher = less potent; details: exposure time: 24 h
[2] = tested on: cysteine peptide Ac-RFAACAA-COOH; assay: efficacy of cysteine peptide change (negative = depletion) (% activity); higher = less depletion; details: incubation time: 24 h
[3] = tested on: lysine peptide Ac-RFAAKAA-COOH; assay: efficacy of lysine peptide change (negative = depletion) (% activity); higher = less depletion; details: incubation time: 24 h
[4] = tested on: KeratinoSens (HaCaT ARE-luciferase) cells; assay: efficacy of ARE luciferase induction relative to DMSO (% activity over DMSO); higher = stronger induction; details: exposure time: 24 h
[5] = tested on: cysteine peptide Ac-RFAACAA-COOH; assay: AC50 of cysteine peptide concentration-response (direction given by sign of efficacy); higher = less potent; details: incubation time: 24 h
[6] = tested on: KeratinoSens (HaCaT ARE-luciferase) cells; assay: cytotoxicity AC50 (CellTiter-Fluor viability); higher = less cytotoxic; details: exposure time: 24 h

O=C(Oc1ccccc1)c1cccc(C(=O)Oc2ccccc2)c1 [Diphenyl isophthalate]
efficacy of IL-8 induction (THP-1): 0 | AC50 of Nrf2/ARE luciferase induction [1]: 29.8 µM | efficacy of cysteine peptide change [2]: -4.99 ± 8.6 | efficacy of lysine peptide change [3]: -2 ± 3.5 | efficacy of ARE luciferase induction [4]: 56.2 ± 20

C=C1CC[C@H](O)C/C1=C/C=C1\CCC[C@]2(C)[C@@H]([C@H](C)/C=C/[C@H](C)C(C)C)CC[C@@H]12 [Ergocalciferol*]
efficacy of IL-8 induction (THP-1): 20.2 ± 3.7 | AC50 of Nrf2/ARE luciferase induction [1]: 34.2 µM | efficacy of cysteine peptide change [2]: -99.4 ± 8.8 | efficacy of lysine peptide change [3]: -20.5 ± 4.3 | AC50 [5]: 28.3 ± 9.3 µM | efficacy of ARE luciferase induction [4]: 78.7 ± 43

CN1C[C@H](C(=O)N[C@]2(C)O[C@@]3(O)[C@@H]4CCCN4C(=O)[C@H](Cc4ccccc4)N3C2=O)C=C2c3cccc4[nH]cc(c34)C[C@H]21 [Ergotamine D-tartrate*]
efficacy of IL-8 induction (THP-1): 15.3 ± 4.1 | AC50 of Nrf2/ARE luciferase induction [1]: 23.1 µM | efficacy of cysteine peptide change [2]: -98.5 ± 6.4 | efficacy of lysine peptide change [3]: 14.3 ± 3.5 | AC50 [5]: 11.4 ± 2.6 µM | efficacy of ARE luciferase induction [4]: 61.1 ± 17

CCOc1ccc2nc3cc(N)ccc3c(N)c2c1 [Ethacridine lactate monohydrate]
efficacy of IL-8 induction (THP-1): 13.6 ± 2.8 | AC50 of Nrf2/ARE luciferase induction [1]: 29.4 µM | efficacy of cysteine peptide change [2]: -93.5 ± 7.5 | efficacy of lysine peptide change [3]: 107 ± 12 | AC50 [5]: 0.29 ± 0.07 µM | efficacy of ARE luciferase induction [4]: 86.2 ± 47

CCOc1ccc2nc(S(N)(=O)=O)sc2c1 [Ethoxzolamide]
efficacy of IL-8 induction (THP-1): 10.3 ± 4.8 | AC50 of Nrf2/ARE luciferase induction [1]: 25.3 µM | efficacy of cysteine peptide change [2]: 2.67 ± 4.6 | efficacy of lysine peptide change [3]: 35.1 ± 5 | efficacy of ARE luciferase induction [4]: 58.7 ± 28

C=C1C[C@@H]2[C@H](CC[C@]3(C)C(=O)CC[C@@H]23)[C@@]2(C)C=CC(=O)C=C12 [Exemestane]
efficacy of IL-8 induction (THP-1): 3.01 ± 5.2 | AC50 of Nrf2/ARE luciferase induction [1]: 33 µM | efficacy of cysteine peptide change [2]: -9.57 ± 9.8 | efficacy of lysine peptide change [3]: 97.5 ± 6.3 | efficacy of ARE luciferase induction [4]: 109 ± 64

C/C=C1\C(=O)C[C@H]2[C@@H]3CCC4=CC(=O)CC[C@]4(C)[C@H]3CC[C@]12C [Guggulsterone Z]
efficacy of IL-8 induction (THP-1): 7.24 ± 12 | AC50 of Nrf2/ARE luciferase induction [1]: 53.6 µM | efficacy of cysteine peptide change [2]: 2.81 ± 4.9 | efficacy of lysine peptide change [3]: 11.4 ± 10 | efficacy of ARE luciferase induction [4]: 135 ± 63

C=CCOC(Cn1ccnc1)c1ccc(Cl)cc1Cl (stereo not drawn) [Imazalil sulfate]
efficacy of IL-8 induction (THP-1): 0 | AC50 of Nrf2/ARE luciferase induction [1]: 29.9 µM | efficacy of cysteine peptide change [2]: 38.5 ± 11 | efficacy of lysine peptide change [3]: 166 ± 21 | efficacy of ARE luciferase induction [4]: 40.5 ± 36

CC(C)=CCC1=C(O)c2ccccc2C(=O)C1=O [Lapachol]
efficacy of IL-8 induction (THP-1): 25.8 ± 1.6 | AC50 of Nrf2/ARE luciferase induction [1]: 26.7 µM | efficacy of cysteine peptide change [2]: 26.5 | efficacy of lysine peptide change [3]: -2.31 ± 13 | efficacy of ARE luciferase induction [4]: 65.3 ± 5.4

O=C(O)Cn1c(C(=O)Nc2nc(-c3ccccc3Cl)cs2)cc2ccccc21 [Lintitript]
efficacy of IL-8 induction (THP-1): 8.96 ± 8.3 | AC50 of Nrf2/ARE luciferase induction [1]: 32.9 µM | efficacy of cysteine peptide change [2]: 1.07 ± 9.6 | efficacy of lysine peptide change [3]: -12.9 ± 12 | efficacy of ARE luciferase induction [4]: 155 ± 87

CC#Cc1cc(C)nc(Nc2ccccc2)n1 [Mepanipyrim]
efficacy of IL-8 induction (THP-1): 4.67 ± 8.1 | AC50 of Nrf2/ARE luciferase induction [1]: 47.4 µM | efficacy of cysteine peptide change [2]: -2.96 ± 5.1 | efficacy of lysine peptide change [3]: 48.4 ± 24 | efficacy of ARE luciferase induction [4]: 73.3 ± 15

COc1ccc(C(c2ccc(OC)cc2)C(Cl)(Cl)Cl)cc1 [Methoxychlor]
efficacy of IL-8 induction (THP-1): 21.1 ± 3.3 | AC50 of Nrf2/ARE luciferase induction [1]: 43.2 µM | efficacy of cysteine peptide change [2]: 2.72 ± 4.7 | efficacy of lysine peptide change [3]: -3.51 ± 15 | efficacy of ARE luciferase induction [4]: 50.9 ± 18

CN(C)c1ccc(N)cc1 [N,N-Dimethyl-p-phenylenediamine]
efficacy of IL-8 induction (THP-1): 21 ± 7.2 | AC50 of Nrf2/ARE luciferase induction [1]: 17.1 µM | efficacy of cysteine peptide change [2]: -130 ± 19 | efficacy of lysine peptide change [3]: -17.1 ± 8.3 | AC50 [5]: 8.18 ± 2.3 µM | efficacy of ARE luciferase induction [4]: 84.5 ± 29

COc1ccc2cc(CCC(C)=O)ccc2c1 [Nabumetone]
efficacy of IL-8 induction (THP-1): 0.27 ± 5.5 | AC50 of Nrf2/ARE luciferase induction [1]: 3.98 µM | efficacy of cysteine peptide change [2]: -3.44 ± 6 | efficacy of lysine peptide change [3]: -2.87 ± 17 | cytotoxicity AC50 [6]: 7.94 µM | efficacy of ARE luciferase induction [4]: 124 ± 44

O=C1Nc2ccccc2C1(c1ccc(O)cc1)c1ccc(O)cc1 [Oxyphenisatin]
efficacy of IL-8 induction (THP-1): 0 | AC50 of Nrf2/ARE luciferase induction [1]: 19 µM | efficacy of cysteine peptide change [2]: -16.7 ± 14 | efficacy of lysine peptide change [3]: 39.7 ± 4.7 | efficacy of ARE luciferase induction [4]: 47.8 ± 12

O=[N+]([O-])c1c(Cl)c(Cl)c(Cl)c(Cl)c1Cl [Pentachloronitrobenzene]
efficacy of IL-8 induction (THP-1): 12.2 ± 11 | AC50 of Nrf2/ARE luciferase induction [1]: 42.1 µM | efficacy of cysteine peptide change [2]: -3.67 ± 6.3 | efficacy of lysine peptide change [3]: 5.1 ± 8.8 | efficacy of ARE luciferase induction [4]: 47.4 ± 32

O=CC(=O)c1ccccc1 [Phenyl glyoxal]
efficacy of IL-8 induction (THP-1): 0 | AC50 of Nrf2/ARE luciferase induction [1]: 35.5 µM | efficacy of cysteine peptide change [2]: -26.9 ± 24 | efficacy of lysine peptide change [3]: -25.8 ± 6.1 | efficacy of ARE luciferase induction [4]: 522 ± 80

Clc1ccccc1-c1nc(-c2ccncc2)no1 [Pifexole]
efficacy of IL-8 induction (THP-1): 4.35 ± 7.5 | AC50 of Nrf2/ARE luciferase induction [1]: 11.4 µM | efficacy of cysteine peptide change [2]: 3.16 ± 5.5 | efficacy of lysine peptide change [3]: 10.5 ± 18 | efficacy of ARE luciferase induction [4]: 60.8 ± 7.6

C[C@@H]1O[C@@H](O[C@@H]2C=C3CC[C@@H]4[C@H](CC[C@]5(C)[C@@H](c6ccc(=O)oc6)CC[C@]45O)[C@@]3(C)CC2)[C@H](O)[C@H](O)[C@H]1O [Proscillaridin]
efficacy of IL-8 induction (THP-1): 38.2 ± 14 | AC50 of Nrf2/ARE luciferase induction [1]: 0.27 µM | efficacy of cysteine peptide change [2]: 2.01 ± 3.5 | efficacy of lysine peptide change [3]: 14.3 ± 11 | cytotoxicity AC50 [6]: 0.51 ± 0.11 µM | efficacy of ARE luciferase induction [4]: 246 ± 170

CC(COc1ccc(Oc2ccccc2)cc1)Oc1ccccn1 (stereo not drawn) [Pyriproxyfen]
efficacy of IL-8 induction (THP-1): 4.2 ± 1.8 | AC50 of Nrf2/ARE luciferase induction [1]: 34.9 µM | efficacy of cysteine peptide change [2]: 8.09 ± 7 | efficacy of lysine peptide change [3]: -7.08 ± 11 | efficacy of ARE luciferase induction [4]: 83.9 ± 13

CC(C)=CC1C(C(=O)OCc2coc(Cc3ccccc3)c2)C1(C)C (stereo not drawn) [Resmethrin]
efficacy of IL-8 induction (THP-1): 4.15 ± 7.2 | AC50 of Nrf2/ARE luciferase induction [1]: 46.5 µM | efficacy of cysteine peptide change [2]: -122 ± 8.3 | efficacy of lysine peptide change [3]: -58 ± 4.8 | AC50 [5]: 58.1 ± 19 µM | efficacy of ARE luciferase induction [4]: 69.7 ± 30

CC(C)=CCOc1ccc(/C=C/C(=O)c2ccc(OCC=C(C)C)cc2OCC(=O)O)cc1 [Sofalcone]
efficacy of IL-8 induction (THP-1): 0 | AC50 of Nrf2/ARE luciferase induction [1]: 33 µM | efficacy of cysteine peptide change [2]: 54.9 | efficacy of lysine peptide change [3]: -12.4 ± 20 | efficacy of ARE luciferase induction [4]: 521 ± 240

O=C1OC(OC(=O)c2cccnc2Nc2cccc(C(F)(F)F)c2)c2ccccc21 (stereo not drawn) [Talniflumate]
efficacy of IL-8 induction (THP-1): 9.09 ± 8.3 | AC50 of Nrf2/ARE luciferase induction [1]: 35.5 µM | efficacy of cysteine peptide change [2]: -29.7 ± 11 | efficacy of lysine peptide change [3]: 85.3 ± 9.9 | efficacy of ARE luciferase induction [4]: 1280 ± 66

O=C(O)Cc1cc(I)c(Oc2cc(I)c(O)c(I)c2)c(I)c1 [Tetrac]
efficacy of IL-8 induction (THP-1): 0 | AC50 of Nrf2/ARE luciferase induction [1]: 43.1 µM | efficacy of cysteine peptide change [2]: -91.9 ± 9.5 | efficacy of lysine peptide change [3]: 6.09 ± 18 | AC50 [5]: 33.5 ± 7.5 µM | efficacy of ARE luciferase induction [4]: 377 ± 69

OC[P+](CO)(CO)CO [Tetrakis(hydroxymethyl)phosphonium SO4]
efficacy of IL-8 induction (THP-1): 4.18 ± 7.2 | AC50 of Nrf2/ARE luciferase induction [1]: 29.4 µM | efficacy of cysteine peptide change [2]: 43.1 ± 6.6 | efficacy of lysine peptide change [3]: -40.3 ± 14 | efficacy of ARE luciferase induction [4]: 126 ± 16

NNC(N)=S [Thiosemicarbazide]
efficacy of IL-8 induction (THP-1): 35.8 ± 29 | AC50 of Nrf2/ARE luciferase induction [1]: 15.8 µM | efficacy of cysteine peptide change [2]: -40.9 ± 11 | efficacy of lysine peptide change [3]: 9.67 ± 17 | cytotoxicity AC50 [6]: 28.3 ± 3.2 µM | efficacy of ARE luciferase induction [4]: 64.8 ± 15

CCN(CC)CCOc1ccc2c(c1)C(=O)c1cc(OCCN(CC)CC)ccc1-2 [Tilorone]
efficacy of IL-8 induction (THP-1): 27.2 ± 3.2 | AC50 of Nrf2/ARE luciferase induction [1]: 22.1 µM | efficacy of cysteine peptide change [2]: -43 ± 15 | efficacy of lysine peptide change [3]: 81.7 ± 28 | cytotoxicity AC50 [6]: 12.6 ± 1.4 µM | efficacy of ARE luciferase induction [4]: 293 ± 85

CCCOC/C(=N\c1ccc(Cl)cc1C(F)(F)F)n1ccnc1 [Triflumizole]
efficacy of IL-8 induction (THP-1): 38.3 ± 1.3 | AC50 of Nrf2/ARE luciferase induction [1]: 63.9 µM | efficacy of cysteine peptide change [2]: 4.17 ± 7.2 | efficacy of lysine peptide change [3]: 41.1 ± 13 | efficacy of ARE luciferase induction [4]: 134 ± 58

CC(C)CCCCCCCOC(=O)c1ccc(C(=O)OCCCCCCCC(C)C)c(C(=O)OCCCCCCCC(C)C)c1 [Triisodecyl trimellitate]
efficacy of IL-8 induction (THP-1): 13.5 ± 0.9 | AC50 of Nrf2/ARE luciferase induction [1]: 42.2 µM | efficacy of cysteine peptide change [2]: -22.8 ± 5 | efficacy of lysine peptide change [3]: -10.8 ± 18 | AC50 [5]: 19.9 µM | efficacy of ARE luciferase induction [4]: 72.5 ± 41

O=C(CCCCCCC(=O)Nc1ccccc1)NO [Vorinostat (SAHA)]
efficacy of IL-8 induction (THP-1): 7.76 ± 8.9 | AC50 of Nrf2/ARE luciferase induction [1]: 11.7 µM | efficacy of cysteine peptide change [2]: 0 | efficacy of lysine peptide change [3]: 11.4 ± 21 | cytotoxicity AC50 [6]: 11.4 ± 2.1 µM | efficacy of ARE luciferase induction [4]: 597 ± 130

COP(=O)(OC)O/C(=C\Cl)c1cc(Cl)c(Cl)cc1Cl [Z-Tetrachlorvinphos]
efficacy of IL-8 induction (THP-1): 1.71 ± 3 | AC50 of Nrf2/ARE luciferase induction [1]: 41.8 µM | efficacy of cysteine peptide change [2]: 4.88 ± 8.5 | efficacy of lysine peptide change [3]: 75.2 ± 24 | cytotoxicity AC50 [6]: 53.6 ± 16 µM | efficacy of ARE luciferase induction [4]: 72.1 ± 13
